According to patent publication US9408816B2, “Method of using histone deacetylase inhibitors and monitoring biomarkers in combination therapy” (Pharmacyclics LLC, priority 2006, dated 2016):

Assays:
[1] = tested on: RAD51 foci in irradiated HCT-116 cells; assay: RAD51 nuclear foci following γ-irradiation; assay type: cell-based; details: pretreatment for 24 hours
Method: (§1) To explore this further, we analyzed levels of RAD51, an essential protein in HR, by Western blotting and immunofluorescence. Following exposure of HCT116 cells to doses of the test compound ranging from 0.2 μM to 2.0 μM, RAD51 levels decreased to 20% of control by 24 hr, but remained unchanged at 6 hr. […] Finally, RAD51 nuclear foci were visualized following γ-irradiation.
Monolayer cultures of different cells are grown in Dulbecco's MEM medium supplemented with 10% fetal bovine serum and antibiotics. The cells are detached from culture flasks by gentle trypsinization, pelleted and resuspended in phosphate buffered saline (PBS; 136 mM NaCl, 2 mM KCG, 10.6 mM NaHPO4, 1.5 mM KH2PO4 [pH 7.3]) prewarmed at 37° C. (Haaf, et al., 1995, Proc. Natl. Acad. Sci. USA 92: 2298-2302). Cultured cells are washed and resuspended in PBS. The density of somatic cells is adjusted to about 10^5 cells per ml in PBS. Aliquots (0.5 ml) of the cell suspension are centrifuged onto clean glass slides at 800 rpm for 4 min, in a Cytospin (Shandon, Pittsburg). Immediately after cytocentrifugation, the slides are fixed in −20° C. methanol for 30 min and then immersed in ice-cold acetone for a few seconds to permealize the cells for antibody staining. […]

[2] = tested on: RAD51 protein in NHL cell lines; assay: RAD51 protein downregulation in Non-Hodgkins lymphoma cell lines (Western blot); assay type: cell-based; details: 24 hours, most of the cell lines tested
Method: (§2) Western Blot Analysis: Cell lines [al NHL except for Jurkat (T-cll leukemia) and K562 (CML)] were treated with PCI-24781 for the designated times, lysed and total protein was quantitated and western blot analysis performed. RAD51 and Actin antibodies were from Santa Cruz.

[3] = tested on: RAD51 in HCT-116 mouse xenografts; assay: RAD51 levels in HCT-116 xenograft tumors; details: HCT-116, in vivo (not shown)
Method: Also shown are RAD51 levels and actin levels after extraction of tumor from HCT-116 mouse xenografts with different dosing regimens. 1× animals received a single oral dose 4 hours before the end of the study; 2× animals received one oral dose 28 hours before the end of the study and received a second dose 6 hours later; 3× animals were dosed as in the 2× but also received a third dose the following morning, 24 hours after the first dose was administered and 4 hours before the end of the study. Fold changes in protein levels were quantitated by using Odyssey software and were normalized to the levels of the actin loading control.
3-((dimethylamino)methyl)-N-(2-(4-(hydroxycarbamoyl)phenoxy)ethyl)benzofuran-2-carboxamide pretreatment for 24 hours also lead to complete loss of RAD51 foci in the nuclei of irradiated HCT-116 cells (not shown; see Adimoolam et al. 2007, PNAS epub Nov. 27 the experiment, which is herein incorporated by reference).

[4] = tested on: DHL-4 Non-Hodgkins cell line; assay: Combination with doxorubicin in DHL-4; assay type: cell-based; details: administered simultaneously
[5] = tested on: DLCL2 Non-Hodgkins cell line; assay: Combination with doxorubicin in DLCL2; assay type: cell-based; details: administered simultaneously
[6] = tested on: RAD51 protein in HH cutaneous T-cell lymphoma cell line; assay: RAD51 protein downregulation in HH cell line (Western blot); assay type: cell-based; details: 24 hours
Method: as §2

[7] = tested on: RAD51 mRNA in HH cell line; assay: RAD51 mRNA by Taqman RT-PCR in HH cell line; assay type: cell-based; details: 24 hours
Method: (§3) Tagman Gene Expression Assays: 10 lymphoma cell lines were treated with PCI-24781 for various times and total RNA was isolated and quantitated. Taqman assays were set up using the Taqman master mix (Applied Biosystems) and 50 ng of total RNA as template. Gene expression assay probe sets for RAD51 was purchased from Applied Biosystems.
(§4) Cell lines were treated with 3-((dimethylamino)methyl)-N-(2-(4-(hydroxycarbamoyl)phenoxy)ethyl)benzofuran-2-carboxamide for 24 hours, and RAD51 mRNA was analyzed by Taqman RT-PCR.

RAD51 in HCT116 cells = assay: RAD51 protein levels by Western blotting in HCT116 cells; assay type: cell-based; details: by 24 hours, HCT-116 in vitro
Method: as §1
For determination of protein levels by Western blot, cellular extracts are prepared as follows. Cells are harvested by scraping; washed with PBS and pelleted by centrifugation. Cell pellets (from 100 mm plate) are resuspended with 200 μl B3 buffer containing protease inhibitors shaken at 4° C. for 10 min and centrifuge at 12,000 rpm at 4° C. in Tomy microcentrifuge for 10 minutes. To make 1 liter of B3 buffer, add 1 ml of NP-40, 50 ml of 5 M NaCl, 10 ml of […], 50 ml of 1 M Tris HCl at pH7.5 to 889 ml dH2O. The day of cell harvest protease inhibitors are added to B3 buffer (aprotinin, leupeptin and pepstatin to a final concentration of 2 μg/ml, 5 μg/ml and 0.7 μg/ml, respectively). […] Sample protein concentrations are determined by the Bradford Assay (BioRad; Richmond, Calif.). […]
Western Blot Analysis: Cell lines [al NHL except for Jurkat (T-cll leukemia) and K562 (CML)] were treated with PCI-24781 for the designated times, lysed and total protein was quantitated and western blot analysis performed. […]

[8] = tested on: RAD51 transcript in HCT116 cells; assay: RAD51 transcript levels by real time PCR in HCT116 cells; assay type: cell-based; details: by 24 hours, HCT-116 in vitro
HH lymphoma line = assay: Apoptosis by Annexin V-FITC flow cytometry in HH line; assay type: cell-based
Method: (§5) 3-((dimethylamino)methyl)-N-(2-(4-(hydroxycarbamoyl)phenoxy)ethyl)benzofuran-2-carboxamide induced apoptosis in lymphoma cell lines after a 48 hour incubation measured by Annexin V-FITC flow cytometry. […] Thus, both the initial level of RAD51 in tumors as well as the fold decrease after treatment are predictive for 3-((dimethylamino)methyl)-N-(2-(4-(hydroxycarbamoyl)phenoxy)ethyl)benzofuran-2-carboxamide activity, and in some embodiments is used as biomarkers in clinical studies to identify patients most likely to respond to 3-((dimethylamino)methyl)-N-(2-(4-(hydroxycarbamoyl)phenoxy)ethyl)benzofuran-2-carboxamide.

lymphoma cell lines = assay: Apoptosis by Annexin V-FITC flow cytometry in lymphoma cell lines; assay type: cell-based
Method: as §5

HH cell line = assay: Combination with doxorubicin in HH; assay type: cell-based; details: administered simultaneously
[9] = tested on: RAD51 mRNA in lymphoma cell lines; assay: RAD51 mRNA by Taqman RT-PCR in lymphoma cell lines; assay type: cell-based
Method: as §3, §4

Q: With CN(C)Cc1c(C(=O)NCCOc2ccc(C(=O)NO)cc2)oc2ccccc12 [3-((dimethylamino)methyl)-N-(2-(4-(hydroxycarbamoyl)phenoxy)ethyl)benzofuran-2-carboxamide] as the molecule, how does the “RAD51 foci in the nuclei” value [1] read?
A: Its value is “complete loss”.

Q: What about the RAD51 protein levels [2] of the same molecule?
A: The RAD51 protein levels was “downregulated RAD51 protein levels in a dose-dependent manner”.

Q: And the RAD51 protein levels ([2]; listed as 3-((dimethylamino)methyl) -N-(2-(4-(hydroxycarbamoyl)phenoxy)ethyl)benzofuran-2-)?
A: Its RAD51 protein levels is “downregulated RAD51 protein levels”.

Q: What about the “RAD51 levels in vivo” value [3] of the same molecule?
A: Its value is “downregulating RAD51”.

Q: What about the “combination effect with doxorubicin” value [4] of the same molecule?
A: Its value is “synergistic effects”.

Q: What about the “combination effect with doxorubicin” value [5] of the same molecule?
A: The value was “synergistic effects”.

Q: And the “effect on RAD51 protein levels” value [6]?
A: Its value is “least effect”.

Q: What about the “RAD51 mRNA change” value [7] of the same molecule?
A: The value was “no decrease”.

Q: What about the RAD51 protein levels (RAD51 in HCT116 cells) of the same molecule?
A: Its RAD51 protein levels is “downregulating RAD51”.

Q: What about the “RAD51 mRNA levels” value [8] of the same molecule?
A: The value was “downregulating RAD51”.

Q: What about the apoptosis (HH lymphoma line) of the same molecule?
A: The apoptosis was “least % apoptosis”.

Q: What about the apoptotic cell death (lymphoma cell lines; 48 hour incubation, all the lines except HH) of the same molecule?
A: The apoptotic cell death was “dose-dependent increase in apoptotic cell death”.

Q: And the apoptosis (lymphoma cell lines; at 24 hrs, all the lines)?
A: The apoptosis was “lower levels of apoptosis”.

Q: And the “apoptosis following drug treatment” value (lymphoma cell lines; five most sensitive cell lines)?
A: The value was over 70%.

Q: And the “combination effect with doxorubicin” value (HH cell line)?
A: Its value is “less than additive”.

Q: What about the “downregulation of RAD51 mRNA expression” value ([9]; 24 hours, most of the cell lines) of the same molecule?
A: Its value is “more than 2 fold”.

Q: What about the “decrease in RAD51 mRNA” value ([9]; the five cell lines with >70% apoptosis) of the same molecule?
A: The value was over 4 fold.
